Tests used:
[1] = target: T1, MMP-2 (human gelatinase A) (Homo sapiens, UniProt P08253); test: Biochemical Assay (Protocol A): inhibition of human gelatinase A, fluorimetric peptide substrate; conditions: MMP-2, pH 7.4, 37° C.
T1 sequence (P08253 110-660): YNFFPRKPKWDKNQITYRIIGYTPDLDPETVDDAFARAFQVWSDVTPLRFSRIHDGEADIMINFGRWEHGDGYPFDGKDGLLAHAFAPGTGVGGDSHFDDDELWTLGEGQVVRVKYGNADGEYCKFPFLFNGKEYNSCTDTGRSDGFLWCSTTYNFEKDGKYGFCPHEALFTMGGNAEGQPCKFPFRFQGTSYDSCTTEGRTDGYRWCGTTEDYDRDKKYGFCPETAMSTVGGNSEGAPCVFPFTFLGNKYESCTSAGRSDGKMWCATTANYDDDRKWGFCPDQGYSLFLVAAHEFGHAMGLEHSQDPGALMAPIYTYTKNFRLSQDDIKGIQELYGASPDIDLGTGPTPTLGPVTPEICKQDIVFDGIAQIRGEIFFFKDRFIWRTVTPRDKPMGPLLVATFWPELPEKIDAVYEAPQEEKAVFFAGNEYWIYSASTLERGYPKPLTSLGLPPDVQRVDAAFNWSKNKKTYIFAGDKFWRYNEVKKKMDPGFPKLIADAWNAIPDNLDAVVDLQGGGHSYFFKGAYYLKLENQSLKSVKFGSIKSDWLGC
Source text: (§1) As mentioned above, although low molecular weight MMP inhibitors, including hydroxamates of general formula (A), are already known, there is a strong need for better and diversified molecules for their use in medicine, that is in particular in the control or prevention of degenerative joint diseases such as rheumatoid arthritis and osteoarthritis, or in the management of multiple sclerosis, or in the treatment of invasive tumors. […] For example, the following protocol was used to assess the biochemical activity of compounds of formula (I) against MMP-1, MMP-2, and MMP-3 (respectively, human interstitial collagenase, gelatinase A, and stromelysin-1).
(§2) Human gelatinase-A (MMP-2) was obtained as pro-enzyme (72 kDa) and was activated with 1 mM 4-aminophenylmercuric acetate for 30 min at 37° C. immediately prior to use. Human stromelysin-1 (MMP-3) was obtained as a recombinant pro-enzyme isolated either from E. coli or from baculovirus infected Sf9 insect cells and activated either by heat (1 h, 55° C.) or by 5 mg/l trypsin (30 min, 37° C.) before addition of soybean trypsin inhibitor, finally removed by centrifugation.
(§3) All enzyme assays to determine values of the enzyme-inhibitor dissociation constants were performed using the peptide substrate (7-methoxycoumarin-4-yl)Acetyl-Pro-Leu-Gly-Leu-(3-[2,4-dinitrophenyl]-L-2,3-diaminopropionyl)-Ala-Arg-NH2 (Mca-Pro-Leu-Gly-Leu-Dpa-Ala-Arg--NH2) (C. G. Knight et al., FEBS Lett. 296:263-266, 1992). The enzymes cleave at the Gly-Leu bond removing the internally quenching Dpa group. The release of the highly fluorescent peptide Mca-Pro-Leu was followed fluorimetrically setting the excitation wavelength at 326 nm (bandwidth 5 nm) and the emission at 392 nm (bandwidth 20 nm).
(§4) Continuous fluorescence assay was carried out using a Perkin Elmer LS-50 Fluorescence Spectrophotometer fitted with a thermostatted four position stirring cell changer. Inhibitors were dissolved in the assay buffer ([…] Tris/HCl pH 7.4 containing 0.15 M NaCl, 10 mM CaCl2, 0.01 mM ZnCl2 and 0.05% Brij 35) thermostatted at 37° C. The reaction was started by the addition of substrate ([…]), followed by the addition of the enzyme (e.g. 1.0 nM collagenase, 0.04 nM gelatinase, or 3.0 nM stromelysin) and the increase in fluorescence was monitored over 30 min. The run was repeated at different concentrations of inhibitors in the range 0.1-10000 nM and data at inhibitor concentration in the region if their enzyme-inhibitor dissociation constants were used for calculation.
(§5) Substrate consumption was within 5% of the initial concentration and data outside this range were discarded. The Michaelis constants (Km) for the enzyme-substrate complexes is […] or greater (C. G. Knight et al., reference above), so that the factor (1+S/Km) can be approximated to unity without appreciable error.

[2] = target: T2, MMP-3 (human stromelysin-1) (Homo sapiens, UniProt P08254); test: Biochemical Assay (Protocol A): inhibition of human stromelysin-1, fluorimetric peptide substrate; conditions: MMP-3, pH 7.4, 37° C.
T2 construct: host or cells: E. coli or baculovirus-infected Sf9 insect cells
T2 sequence (P08254 100-477): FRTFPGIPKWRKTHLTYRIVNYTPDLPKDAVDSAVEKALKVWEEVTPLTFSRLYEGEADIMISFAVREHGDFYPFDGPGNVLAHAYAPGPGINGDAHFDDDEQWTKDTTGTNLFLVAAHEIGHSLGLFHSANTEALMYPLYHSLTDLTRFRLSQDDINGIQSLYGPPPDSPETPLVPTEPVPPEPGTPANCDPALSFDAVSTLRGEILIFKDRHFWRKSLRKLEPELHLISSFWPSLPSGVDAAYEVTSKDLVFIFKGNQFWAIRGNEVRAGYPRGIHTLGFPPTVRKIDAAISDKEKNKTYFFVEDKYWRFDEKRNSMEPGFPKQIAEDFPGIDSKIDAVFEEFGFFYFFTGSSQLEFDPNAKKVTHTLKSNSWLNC
Source text: as §1, §2, §3, §4, §5

[3] = test system: release of TNF from THP-1 cells; test: Cellular Assay (Protocol B): inhibition of release of TNF from LPS-stimulated THP-1 cells; assay type: cell-based; conditions: Homo sapiens, LPS 5 microg/mL, 4 h
Description: For example, the following cell-based assay was used to assess such activity:
THP-1 cells, cultured in RPMI 1640 supplemented with 10% FCS, were distributed into 24-well plates, 1 mL of a suspension of 1×10^6 cells/mL in each well. Compounds to be tested, dissolved in DMSO and diluted with the culture medium (1% final DMSO concentration) were added. Plates were incubated for 30 min at 37° C. in 5% CO2, and lipopolisaccharide (LPS 0111:B4, 5 microg/mL) was added as a stimulant. After a further 4 h incubation, cells were harvested, centrifuged (2,000 rpm, 7 min), and the surnatant was collected and freezed (-20° C.) until analysis. Analysis was run by classical ELISA methodology (monoclonal anti-TNF-a antibody, rabbit capture policlonal antibody, and peroxidated anti-rabbit antibody).

Ki [1]: 9.2 nM
Ki [2]: 150 nM
IC50 [3]: 8100 nM
Compound: CNC(=O)[C@@H](NC(=O)[C@H](CC(C)C)[C@](O)(CO)C(=O)NO)C(C)(C)C [Example 3]

Source: patent US6194451A, “Matrix metalloproteinase inhibitors” (Pharmacia & Upjohn S.p.A., priority 1997, dated 2001)
